In patent US20220340875A1, “METHODS OF CULTURING AND/OR EXPANDING STEM CELLS AND/OR LINEAGE COMMITTED PROGENITOR CELLS USING AMIDO COMPOUNDS” (IDEAYA BIOSCIENCES, INC., priority 2018, published 2022):

What follows are compounds tested against T1, hAhR (Homo sapiens, UniProt P35869) (assay: AhR DRE-luciferase reporter transcriptional assay, antagonist mode (TCDD-induced)). Conditions: HEPG2 DRE-Luc cells, 3 nM TCDD, 24 hour incubation, relative IC50.
T1 construct: Stably integrated DRE-luciferase cell lines were generated by transducing the both cell lines with Cignal XRE luciferase reporter (Qiagen) lentiviral particles; endogenous in cells
T1 sequence (P35869 11-848): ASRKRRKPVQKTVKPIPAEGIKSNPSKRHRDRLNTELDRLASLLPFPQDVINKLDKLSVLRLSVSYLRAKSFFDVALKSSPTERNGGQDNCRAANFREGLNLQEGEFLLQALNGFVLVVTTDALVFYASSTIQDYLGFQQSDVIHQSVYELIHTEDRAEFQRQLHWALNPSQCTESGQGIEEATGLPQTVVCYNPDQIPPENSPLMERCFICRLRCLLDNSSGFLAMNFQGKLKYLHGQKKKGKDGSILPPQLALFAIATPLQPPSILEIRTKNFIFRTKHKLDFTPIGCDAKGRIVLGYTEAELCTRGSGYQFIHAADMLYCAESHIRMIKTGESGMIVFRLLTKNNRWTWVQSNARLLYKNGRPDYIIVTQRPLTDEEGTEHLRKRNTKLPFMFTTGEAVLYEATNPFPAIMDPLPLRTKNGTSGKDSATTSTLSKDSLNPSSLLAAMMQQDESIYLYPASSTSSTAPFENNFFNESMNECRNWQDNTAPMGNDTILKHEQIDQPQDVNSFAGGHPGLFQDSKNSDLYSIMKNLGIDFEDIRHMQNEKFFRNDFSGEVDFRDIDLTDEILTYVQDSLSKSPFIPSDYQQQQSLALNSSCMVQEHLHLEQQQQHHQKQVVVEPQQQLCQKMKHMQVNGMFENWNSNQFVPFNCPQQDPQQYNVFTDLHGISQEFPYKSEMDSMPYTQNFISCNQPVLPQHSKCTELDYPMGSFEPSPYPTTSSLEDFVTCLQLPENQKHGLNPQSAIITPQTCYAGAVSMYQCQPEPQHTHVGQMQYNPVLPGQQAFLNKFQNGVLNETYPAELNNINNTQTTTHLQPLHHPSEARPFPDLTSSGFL
Assay type: cell-based
Summary of the method: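 HepG2 cells carrying a stably integrated DRE-luciferase reporter, in OptiMEM with 0.5% FBS; semi-log compound doses added with 3 nM TCDD, 24 h incubation, firefly luciferase read-out. Percent maximal activity normalised between vehicle ± TCDD; relative IC50 taken as half-reduction between curve plateaus.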

Row | SMILES | IC50
1 | Cc1cc(-c2ccc3cccc(F)c3n2)ccc1NC(=O)OC(C)(C)C [Example 022, tert-butyl (4-(8-fluoroquinolin-2-yl)-2-methylphenyl)carbamate] | 1000 to 10000 nM
2 | Cc1cc(-c2ccc3cc(C4CC4)ccc3n2)ccc1N(C)C(=O)c1ccnn1C [Example 069, N-(4-(6-cyclopropylquinolin-2-yl)-2-methylphenyl)-N,1-dimethyl-1H-pyrazole-5-carboxamide] | 1000 to 10000 nM
3 | Cc1cc(-c2ncc3ccc(C(F)(F)F)cc3n2)ccc1NC(=O)c1ccnn1C [Example 108, 1-methyl-N-(2-methyl-4-(7-(trifluoromethyl)quinazolin-2-yl)phenyl)-1H-pyrazole-5-carboxamide] | < 200 nM
4 | Cc1cc(-c2ccc3c(ccn3CC(F)(F)F)c2)ccc1NC(=O)c1ccnn1C [Example 088, 1-methyl-N-(2-methyl-4-(1-(2,2,2-trifluoroethyl)-1H-indol-5-yl)phenyl)-1H-pyrazole-5-carboxamide] | 1000 to 10000 nM
5 | Cc1cc(-c2ccc3cc([N+](=O)[O-])ccc3n2)ccc1NC(=O)c1ccnn1C [Example 076, 1-methyl-N-(2-methyl-4-(6-nitroquinolin-2-yl)phenyl)-1H-pyrazole-5-carboxamide] | < 200 nM
6 | Cc1cc(NC(=O)c2ccnn2C)ncc1-c1ccc2cc(F)ccc2n1 [Example 043, N-(5-(6-fluoroquinolin-2-yl)-4-methylpyridin-2-yl)-1-methyl-1H-pyrazole-5-carboxamide] | 1000 to 10000 nM
7 | Cc1cc(-c2ncc3cc(C(F)(F)F)ccc3n2)ccc1N(C)C(=O)c1ncccc1C [Example 118, N,3-dimethyl-N-(2-methyl-4-(6-(trifluoromethyl)quinazolin-2-yl)phenyl)picolinamide] | 200 to 500 nM
8 | Cc1cc(-c2ccc3cnccc3c2)ccc1NC(=O)c1ccnn1C [Example 021, N-(4-(Isoquinolin-6-yl)-2-methylphenyl)-1-methyl-1H-pyrazole-5-carboxamide] | 500 to 1000 nM
9 | Cc1cc(-c2ccc3c(C(F)(F)F)cn(C)c3c2)ccc1N(C)C(=O)c1ccnn1C [Example 087, N,1-dimethyl-N-(2-methyl-4-(1-methyl-3-(trifluoromethyl)-1H-indol-6-yl)phenyl)-1H-pyrazole-5-carboxamide] | 1000 to 10000 nM
10 | Cc1cc(-c2ccc3cc(F)cc(C)c3n2)ccc1NC(=O)c1ccnn1C [Example 052, N-(4-(6-fluoro-8-methylquinolin-2-yl)-2-methylphenyl)-1-methyl-1H-pyrazole-5-carboxamide] | < 200 nM
11 | Cc1cc(-c2ccc3cncc(C)c3n2)ccc1NC(=O)c1ccnn1C [Example 059, 1-methyl-N-(2-methyl-4-(8-methyl-1,6-naphthyridin-2-yl)phenyl)-1H-pyrazole-5-carboxamide] | 200 to 500 nM
12 | Cc1cc(-c2ccc3ccc(F)cc3n2)ccc1NC(=O)c1ccnn1C [Example 019, N-(4-(7-fluoroquinolin-2-yl)-2-methylphenyl)-1-methyl-1H-pyrazole-5-carboxamide] | 200 to 500 nM
13 | Cc1c(-c2ncc3cc(C(F)(F)F)ccc3n2)ccc(N(C)C(=O)c2ccnn2C)c1F [Example 114, N-(2-fluoro-3-methyl-4-(6-(trifluoromethyl)quinazolin-2-yl)phenyl)-N,1-dimethyl-1H-pyrazole-5-carboxamide] | < 200 nM
14 | Cc1c(-c2ccc3cc(C(F)(F)F)ccc3n2)ccc(N(C)C(=O)c2ccnn2C)c1F [Example 006, N-(2-fluoro-3-methyl-4-(6-(trifluoromethyl)quinolin-2-yl)phenyl)-N,1-dimethyl-1H-pyrazole-5-carboxamide] | 1000 to 10000 nM
15 | CC(=O)N(C)c1ccc(-c2ncc3cc(C(F)(F)F)ccc3n2)cc1C [Example 130, N-methyl-N-(2-methyl-4-(6-(trifluoromethyl)quinazolin-2-yl)phenyl)acetamide] | < 200 nM
16 | COc1cc(C(=O)N(C)c2ccc(-c3ncc4cc(C(F)(F)F)ccc4n3)cc2C)ccn1 [Example 143, 2-Methoxy-N-methyl-N-(2-methyl-4-(6-(trifluoromethyl)quinazolin-2-yl)phenyl)isonicotinamide] | < 200 nM
17 | Cc1cc(-c2ncc3cc(C(F)(F)F)ccc3n2)ccc1N(C)C(=O)OC(C)(C)C [Example 009, tert-butyl methyl(2-methyl-4-(6-(trifluoromethyl)quinazolin-2-yl)phenyl)carbamate] | 500 to 1000 nM
18 | Cc1cc(-c2ncc3cc(C(F)(F)F)ccc3n2)ccc1NC(=O)c1ccncc1C [Example 121, 3-methyl-N-(2-methyl-4-(6-(trifluoromethyl)quinazolin-2-yl)phenyl)isonicotinamide] | < 200 nM
19 | Cc1cc(-c2ccc3cncc(Cl)c3c2)ccc1NC(=O)c1ccnn1C [Example 060, N-(4-(4-chloroisoquinolin-6-yl)-2-methylphenyl)-1-methyl-1H-pyrazole-5-carboxamide] | 200 to 500 nM
20 | Cc1cc(-c2ncc3cc(C(F)(F)F)ccc3n2)ccc1N(C)C(=O)c1ncn[nH]1 [Example 134, N-methyl-N-(2-methyl-4-(6-(trifluoromethyl)quinazolin-2-yl)phenyl)-1H-1,2,4-triazole-5-carboxamide] | 200 to 500 nM
21 | Cc1cc(NC(=O)c2ccnn2C)ccc1-c1ccc2cc(F)ccc2n1 [Example 050, N-(4-(6-fluoroquinolin-2-yl)-3-methylphenyl)-1-methyl-1H-pyrazole-5-carboxamide] | 500 to 1000 nM

Other lines, results leading:

Row | IC50 | SMILES
22 | < 200 nM | Cc1cc(-c2ncc3cc(C(F)(F)F)ccc3n2)ccc1NC(=O)c1c(C)cnn1C [Example 215, 1,4-dimethyl-N-(2-methyl-4-(6-(trifluoromethyl)quinazolin-2-yl)phenyl)-1H-pyrazole-5-carboxamide]
23 | 1000 to 10000 nM | Cc1cc(-c2ncc3nc(C(F)(F)F)cc(C)c3n2)ccc1N(C)C(=O)c1cc(C(=O)O)nn1CC(N)=O [Example 195, 1-(2-amino-2-oxoethyl)-5-(methyl(2-methyl-4-(8-methyl-6-(trifluoro-methyl)pyrido[3,2-d]pyrimidin-2-yl)phenyl)carbamoyl)-1H-pyrazole-3-carboxylic acid]
24 | < 200 nM | Cc1cc(-c2ncc3cc(C(F)(F)F)ccc3n2)ccc1NC(=O)c1ccnc(C(N)=O)c1 [Example 151, N4-(2-methyl-4-(6-(trifluoromethyl)quinazolin-2-yl)phenyl)pyridine-2,4-dicarboxamide]
25 | < 200 nM | Cc1cc(C(F)(F)F)nc2cnc(-c3ccc(NC(=O)N4CCOCC4)c(F)c3)nc12 [Example 185, N-(2-fluoro-4-(8-methyl-6-(trifluoromethyl)pyrido[3,2-d]pyrimidin-2-yl)-phenyl)morpholine-4-carboxamide]
26 | < 200 nM | CN(C(=O)c1ccnn1C)c1ccc(-c2ncc3cc(C(F)(F)F)ccc3n2)cc1 [Example 218, N,1-dimethyl-N-(4-(6-(trifluoromethyl)quinazolin-2-yl)phenyl)-1H-pyrazole-5-carboxamide]
27 | < 200 nM | Cc1cc(-c2ccc3cc(C(F)(F)F)cc(C)c3n2)ccc1N(C)C(=O)c1ccnn1CCO [Example 201, 1-(2-hydroxyethyl)-N-methyl-N-(2-methyl-4-(8-methyl-6-(trifluoromethyl)-quinolin-2-yl)phenyl)-1H-pyrazole-5-carboxamide]
28 | 1000 to 10000 nM | Cc1cc(-c2ncc3cc(C(F)(F)F)ccc3n2)ccc1N(C)C(=O)c1cnn[nH]1 [Example 146, N-methyl-N-(2-methyl-4-(6-(trifluoromethyl)quinazolin-2-yl)phenyl)-1H-1,2,3-triazole-5-carboxamide]
29 | < 200 nM | Cc1c(-c2ncc3nc(C(F)(F)F)cc(C)c3n2)ccc(N(C)C(=O)c2ccnn2C)c1F [Example 177, N-(2-fluoro-3-methyl-4-(8-methyl-6-(trifluoromethyl)pyrido[3,2-d]pyrimidin-2-yl)phenyl)-N,1-dimethyl-1H-pyrazole-5-carboxamide]
30 | 1000 to 10000 nM | Cc1cc(C(F)(F)F)nc2cnc(-c3ccc(NC(=O)C4CCOCC4)c(F)c3)nc12 [Example 186, N-(2-fluoro-4-(8-methyl-6-(trifluoromethyl)pyrido[3,2-d]pyrimidin-2-yl)phenyl)tetrahydro-2H-pyran-4-carboxamide]
31 | 1000 to 10000 nM | Cc1cc(-c2ccc3cc(C(F)(F)F)ccc3n2)c(C)cc1NC(=O)c1nn(C)cc1C [Example 208, N-(2,5-dimethyl-4-(6-(trifluoromethyl)quinolin-2-yl)phenyl)-1,4-dimethyl-1H-pyrazole-3-carboxamide]
32 | < 200 nM | Cc1cc(-c2ncc3nc(C(F)(F)F)cc(C)c3n2)ccc1NC(=O)c1ccnn1CCO [Example 172, 1-(2-hydroxyethyl)-N-[2-methyl-4-[8-methyl-6-(trifluoromethyl)pyrido-[3,2-d]pyrimidin-2-yl]phenyl]-1H-pyrazole-5-carboxamide]
